Reference: patent US11458138B2 (Novartis AG, priority 2017, dated 2022)
“Also recorded” adds a separate entry of the source.

Experiments:
CTGF mRNA in liver = test: In vivo treatment of mice: quantitative RT-PCR, CTGF; conditions: mouse liver, single oral dose 10 mg/kg, 2 h post-dose, relative to vehicle, mean+/-SEM
Experimental: (§1) All animal studies were carried out in accordance with federal, state, local and institutional guidelines governing the use of laboratory animals in research. Male C57BL/6J mice (age 8-10 weeks) were purchased from Jackson Labs (Bar Harbor, Me.). Example 46 was formulated for oral dosing at 3 mg/ml, and Example 261 at 1 mg/ml, in a suspension of methylcellulose:Tween80:Water (0.5:0.5:99). Single oral dose of either compound was at 10 mL/kg body weight. Blood and liver tissue were collected under deep anesthesia (isoflurane) at either 2 h post-dose (for mRNA analysis) or 24 h post-dose (for immunohistochemistry).
Total liver RNA was isolated from tissue after storage in RNAlater reagent (Qiagen), using a TRIzol method according to the manufacturer's instructions (Life Technologies). Relative mRNA abundance was measured by quantitative RT-PCR using TaqMan gene expression assays and reagents according to standard protocols (Applied Biosystems). Mouse probes for YAP target genes were CTGF (Mm01192933_g1) and Cyr61 (Mm00487498_m1). […] Relative changes in mRNA were calculated by the ΔΔCt method. Changes in gene expression with compound treatment are expressed as fold-change relative to the vehicle group.

[1] = test system: Ki67-positive hepatocytes; test: In vivo treatment of mice: immunohistochemistry (IHC) for Ki67 in liver; conditions: mouse liver, single oral dose 10 mg/kg, 24 h post-dose, relative to vehicle, mean+/-SEM
Experimental: as §1
Liver tissue was fixed in 10% neutral buffered formalin for 24-48 h. Processing and embedding in paraffin was by standard procedures. Sections were cut at 5 microns thickness and stained using a Ventana automated system. Primary antibody for mouse Ki67 was a rabbit IgG (Bethyl Labs). Ki67-positive hepatocytes were quantified by image analysis using the HALO platform. At least 3 sections per animal were analyzed, from the middle of the medial lobe.

[2] = test system: pYAP (Ser127) in human HaCaT cells; test: Target Identification Assay: western blot for pYAP in HaCaT cell lysates; format: cell-based; conditions: 9 μM for 1 hour in the presence of 0.5 μM Okadaic acid
Experimental: Compounds of Formula A1, or subformulae thereof, selectively target LATS1/2 versus MST1/2 kinases. To identify the target of the hits from the YAP translocation assay screen, the Target Identification Assay as described in the Examples Section A was performed. The results of the assay are described in FIGS. 33A to 33C.
It is consistent with the consensus in the field that LATS is responsible for YAP phosphorylation.

YAP target gene Cyr61 = test: In Vivo PD Assay: YAP target gene expression in mouse excisional wounds; conditions: mouse full-thickness excisional wounds, topical 0.2 and 2 mg/mL, two daily doses, vs vehicle, dose-dependent
Experimental: The compounds of the invention also activate the YAP pathway in vivo. A study of YAP pathway target gene expression was conducted in an in vivo mouse model as described in the In Vivo PD Assay in the Examples Section A. Two full-thickness excisional wounds on the dorsum of an anesthetized mouse were treated topically with vehicle, or 0.2 and 2 mg/mL of Example 133. After two daily doses, the skin samples around the wound edge were collected and Taqman analyses were performed using Cyr61 and Gapdh probes. mRNA expression levels for the target genes were normalized to Gapdh mRNA levels and plotted against the concentration of Example 133 in FIG. 34. […] The result is consistent with known LATS biology for activation of the YAP pathway.

[3] = test system: human keratinocytes (HaCaT); test: In vitro YAP pathway activation and cell proliferation in human keratinocytes (HaCaT); format: cell-based
Excerpt: Accordingly, Example 133 is useful in promoting skin regeneration.

[4] = test system: Corneal Endothelial Cells (CECs); test: ZO-1 immunolabelling of expanded CECs; format: cell-based, human; conditions: vs vehicle DMSO
Excerpt: CECs proliferated in the presence of the vehicle alone (DMSO) show signs of polymegatism characteristic of dysfunctional CECs (FIG. 18a).
(2) The cells are able to form tight junctions. This may be checked by a standard technique known in the art, immunofluorescence staining of tight-junction marker Zonula Occludens-1 (ZO-1).
(3) The cells are able to be regularly arranged in the cell layer. This may be checked by a standard technique known in the art, immunofluorescence staining of tight-junction marker Zonula Occludens-1 (ZO-1).

[5] = test system: corneal endothelial cell population; test: Quantitative RT-PCR of expanded corneal endothelial cell population; format: cell-based, human
Excerpt: (2) The cells express one or more of Collagen 8a2, AQP1 (aquaporin 1) and SLC4A11 (Solute Carrier Family 4 Member 11). […] The expression of Collagen 8a2, AQP1 or SLC4A11 may be estimated by standard techniques known in the art, such as for example immunohistochemistry, quantitative RT-PCR or by FACS analysis.
The expression of RPE65 and CD31 may be estimated by standard techniques known in the art, such as for example quantitative RT-PCR, immunohistochemistry or FACS analysis.

[6] = test system: corneal endothelial cell population; test: Immunohistochemical analysis of expanded corneal endothelial cell population; format: cell-based, human
Excerpt: (1) The cells express Na/K ATPase. The expression of Na/K ATPase may be estimated by standard techniques known in the art, such as for example immunohistochemistry, quantitative RT-PCR or by FACS analysis.

[7] = test system: human corneal endothelial cells (CECs); test: CEC population expansion, immunohistochemical observation of cellular morphology (ZO-1); format: cell-based; conditions: 10 micromolar, 10 days
Experimental: Cells were cultured at 37° C. in 5% CO2 for 10 days.
In order to observe that the expanded cell population has the required cellular morphology for use in vivo, the ability of the cells to form tight junctions was measured by immunohistochemistry as follows. Cell cultures were fixed with 4% PFA for 20 minutes, permeabilized and blocked in a blocking solution of 0.3% Triton X-100 (Sigma-Aldrich) and 3% donkey serum in PBS for 30 minutes. Cells were then labeled with primary antibody in the blocking solution for 12 hours at 4° C. Primary antibody used was ZO-1 from Invitrogen. Samples were washed in PBS three times and donkey-raised secondary antibody Alexa Fluor 488 (Molecular Probes) at 1:500 dilution were applied for 30 minutes at room temperature. Cells were washed three times in PBS and nuclei (DNA) were stained with Sytox Orange (567 nm, Life Technologies). […] Fluorescence was observed using a Zeiss LSM 880 confocal microscope.

CC(C)(C)Nc1cc(-c2ccncc2)nc2cnccc12 [Example 261, N-(tert-butyl)-2-(pyridin-4-yl)-1,7-naphthyridin-4-amine]
CTGF mRNA (fold-change) (CTGF mRNA in liver): 2.5 (+/−0.2) fold-change | Ki67 IHC (fold-change) [1]: 3.1 (+/−0.5) fold-change

Cc1n[nH]cc1-c1nc(NC2(C)CC2)c2ccncc2n1 [Example 133, 2-(3-methyl-1H-pyrazol-4-yl)-N-(1-methylcyclopropyl)pyrido[3,4-d]pyrimidin-4-amine]
pYAP by western blot [2]: dramatically inhibited | YAP target gene Cyr61 mRNA normalized to Gapdh (YAP target gene Cyr61): significantly up-regulated; also recorded: induced YAP target gene expression | YAP pathway activation in vitro [3]: activated the YAP pathway | cell proliferation in human keratinocytes (HaCaT) [3]: promoted cell proliferation

CC(C)(O)CC(C)(C)Nc1nc(-c2ccncc2)nc2cnccc12 [Example 49, 2,4-dimethyl-4-{[2-(pyridin-4-yl)pyrido[3,4-d]pyrimidin-4-yl]amino}pentan-2-ol]
tight junctions, cell size and morphology of CECs (ZO-1) [4]: form tight junctions, an endothelial structure and retain a normal cell size and morphology | expression of Collagen 8a2, AQP1, SLc4A11 by quantitative RT-PCR [5]: express genes normally expressed by corneal endothelial cells in vivo | expression of RPE65 and CD31 by quantitative RT-PCR [5]: do not express markers of other epithelia present in the eye | expression of Na/K ATPase and Collagen 8a2 by immunohistochemistry [6]: express genes normally expressed by corneal endothelial cells in vivo | CEC morphology and tight junctions (ZO-1) [7]: retained a normal corneal endothelial cell morphology and the ability to form tight junctions
